In PubChem BioAssay AID1259408 (Genetic Toxicology Data Bank (GENE-TOX), 2018) one finds mutagenic call and call data, which are given here for 19 molecules.

The series relates to GENE-TOX genotoxicity assays, various organisms and cells. The experiment in a line: GENE-TOX mutagenicity studies. Conditions: for call: Assay Type: In vivo carcinogenicity studies. An excerpt: GENE-TOX provides genetic toxicology (mutagenicity) test data from expert peer review of open scientific literature for more than 3,000 chemicals from the United States Environmental Protection Agency (EPA). GENE-TOX was established to select assay systems for evaluation, review data in the scientific literature, and recommend proper testing protocols and evaluation procedures for these systems.
GENE-TOX covers the years 1991 - 1998. It is no longer updated.
This is an archive assay for GENE-TOX mutagenicity studies.

The mark [1] stands for this setting: Species/Cell Type: Nonhuman, Assay Code: CCG+L, Evaluation Type: Evaluation A (Pre-1980).
The mark [2] stands for this setting: Species/Cell Type: Nonhuman, Assay Type: Sister-chromatid exchange (SCE) in vitro, Assay Code: SC2+D, Dose Response: With dose response, Evaluation Type: Evaluation B (Post-1980).
Where [3] appears, read: Species/Cell Type: Salmonella typhimurium (one or more of the five standard strains: TA98, TA100, TA1535, TA1537, and TA1538), Assay Type: Histidine reverse gene mutation, Ames assay, Assay Code: SALT, Evaluation Type: Evaluation A (Pre-1980).
Setting [4] is: Species/Cell Type: Salmonella typhimurium (one or more of the five standard strains: TA98, TA100, TA1535, TA1537, and TA1538), Assay Type: Histidine reverse gene mutation, Ames assay, Assay Code: SAL+*, Activation: With metabolic activation, Evaluation Type: Evaluation A (Pre-1980).
The mark [5] stands for this setting: Species/Cell Type: Allium cepa, Assay Type: Chromosome aberrations, Assay Code: ALC+, Evaluation Type: Evaluation A (Pre-1980).
Setting [6] is: Species/Cell Type: Rodents, Sex: Male, Assay Type: Dominant lethal test, Assay Code: DLT-, Evaluation Type: Evaluation A (Pre-1980).

Calls of active or inactive are those of the source. The rule behind the calls is not given here.

Regarding `Nc1ncn([C@@H]2O[C@H](CO)[C@@H](O)[C@H]2O)c(=O)n1`, the mutagenic call (Species/Cell Type: Human lymphocytes, Assay Type: Sister-chromatid exchange (SCE) in vitro, Assay Code: SCL+, Evaluation Type: Evaluation B (Post-1980)) is “active; positive”; the mutagenic call (Species/Cell Type: Human, Assay Type: Sister-chromatid exchange (SCE) in vitro, Assay Code: SC1+, Evaluation Type: Evaluation B (Post-1980)) is “active; positive”; the mutagenic call (Species/Cell Type: Mouse (C3H/10T1/2) cells, Assay Type: Cell transformation, Assay Code: CTH+, Evaluation Type: Evaluation A (Pre-1980)) was “active; positive”; the mutagenic call under setting [2] was “active; positive”. Further, under setting [1], the call is “active; positive”.

Regarding `CCNC1(c2ccccc2)CCCCC1`, where the note is “Species/Cell Type: Syrian hamster embryo (SA7/SHE) cells, Assay Type: Cell transformation, viral enhanced, Assay Code: CT7+, Evaluation Type: Evaluation A (Pre-1980)”, the mutagenic call was “active; positive”.

With `Cc1cc(N=Nc2c(O)ccc3ccccc23)c(S(=O)(=O)O)cc1Cl`, the mutagenic call under setting [3] was “no conclusion”.

With `O=P1(NCCCl)OCCCN1CCCl` (stereo not drawn), the mutagenic call (Species/Cell Type: Drosophila melanogaster, Assay Type: Aneuploidy, partial sex chromosome loss, chromosome aberrations, Assay Code: DAP-M, Evaluation Type: Evaluation A (Pre-1980)) is “inactive; negative”; the mutagenic call (Species/Cell Type: Drosophila melanogaster, Assay Type: Aneuploidy, whole sex chromosome loss, chromosome aberrations, Assay Code: DAC-M, Evaluation Type: Evaluation A (Pre-1980)) is “inactive; negative”; the mutagenic call (Species/Cell Type: Drosophila melanogaster, Assay Type: Sex-linked recessive lethal gene mutation, Assay Code: SRL+, Evaluation Type: Evaluation A (Pre-1980)) was “active; positive”; the mutagenic call (Species/Cell Type: Mammalian polychromatic erythrocytes, Assay Type: Micronucleus test, chromosome aberrations, Assay Code: MNT+, Evaluation Type: Evaluation A (Pre-1980)) is “active; positive”; the mutagenic call (Species/Cell Type: Saccharomyces cerevisiae, Assay Type: Forward and reverse gene mutation, mitotic recombination and gene conversion, DNA effects, body fluid assay, Assay Code: BFC+, Evaluation Type: Evaluation A (Pre-1980)) was “active; positive”; the mutagenic call (Species/Cell Type: Saccharomyces cerevisiae, Assay Type: Forward and reverse gene mutation, mitotic recombination and gene conversion, host-mediated assay, Assay Code: HMET, Evaluation Type: Evaluation A (Pre-1980)) is reported as “no conclusion”. Also, the mutagenic call is, setting by setting: (Species/Cell Type: Saccharomyces cerevisiae, Assay Type: Mitotic recombination or gene conversion, Assay Code: YEC+*, Activation: With metabolic activation, Evaluation Type: Evaluation A (Pre-1980)) “active; positive”; under setting [4], “active; positive”. Under “Species/Cell Type: Nonhuman, Assay Code: CCG+, Evaluation Type: Evaluation A (Pre-1980)”, the call was “active; positive”.

In the case of `Oc1ccc(O)c(O)c1`, the mutagenic call under setting [5] is “active; positive”.

Regarding `O=S(=O)(O)c1cc(-n2nc3ccc4ccccc4c3n2)ccc1/C=C/c1ccccc1`, the mutagenic call was “inactive; negative” under setting [6]; “no conclusion” (Species/Cell Type: Saccharomyces cerevisiae, Assay Type: Mitotic recombination or gene conversion, Assay Code: YECT, Evaluation Type: Evaluation A (Pre-1980)); “no conclusion” under setting [3].

Turning to `C[C@H]1CCCC(=O)CCC/C=C/c2cc(O)cc(O)c2C(=O)O1`, the mutagenic call is “active; positive” (Species/Cell Type: Bacillus subtilis (H17 vs M45), Assay Type: Rec-assay, spot test, DNA effects (bacterial DNA repair), Assay Code: REW+, Evaluation Type: Evaluation A (Pre-1980)) and “inactive; negative” (Species/Cell Type: Saccharomyces cerevisiae, Assay Type: Mitotic recombination or gene conversion, Assay Code: YEH-, Evaluation Type: Evaluation A (Pre-1980)).

In the case of `O=S(=O)(O)c1cc(O)c2c(O)c(N=Nc3ccccc3)c(S(=O)(=O)O)cc2c1`, the mutagenic call (Species/Cell Type: Bacillus subtilis (H17 vs M45), Assay Type: Rec-assay, spot test, DNA effects (bacterial DNA repair), Assay Code: REWT, Evaluation Type: Evaluation A (Pre-1980)) is “no conclusion”.

For `O=C(O)[C@@H]1CCCN1`, the mutagenic call (Species/Cell Type: Salmonella typhimurium, Assay Type: Forward and reverse gene mutation, host-mediated assay, Assay Code: HMA-, Evaluation Type: Evaluation A (Pre-1980)) was “inactive; negative”.

For `OC1c2c(c3cc4ccccc4cc3c3ccccc23)C=C[C@H]1O` (stereo partly drawn), the mutagenic call under setting [2] was “active; positive”.

With `COc1ccc(C[C@H](N)C(=O)N[C@H]2[C@@H](O)[C@H](n3cnc4c(N(C)C)ncnc43)O[C@@H]2CO)cc1`, the mutagenic call by setting is: (Species/Cell Type: Escherichia coli polA (W3110 vs P3478), Assay Type: Rec-assay, DNA effects (bacterial DNA repair), Assay Code: RE2+, Evaluation Type: Evaluation A (Pre-1980)) “active; positive”; (Species/Cell Type: Escherichia coli polA (W3119 vs P3478), Assay Type: Rec-assay, DNA effects (bacterial DNA repair), Assay Code: RE1-, Evaluation Type: Evaluation A (Pre-1980)) “inactive; negative”; (Species/Cell Type: Glycine max (soybean), Assay Type: Gene mutation, Assay Code: GLMT, Evaluation Type: Evaluation A (Pre-1980)) “no conclusion”; under setting [6], “inactive; negative”.

In the case of `C[C@@H]1O[C@H]1P(=O)(O)O`, the mutagenic call (Species/Cell Type: Mammalian polychromatic erythrocytes, Assay Type: Micronucleus test, chromosome aberrations, Assay Code: MNTT, Evaluation Type: Evaluation B (Post-1980)) is recorded as “no conclusion”.

For the molecule `Cc1cc(=Nc2ccc3c(c2)c(-c2ccc(N)cc2)[n+](C)c2cc(N)ccc32)nc(N)n1C`, for the setting “Species/Cell Type: Salmonella typhimurium (one or more of the five standard strains: TA98, TA100, TA1535, TA1537, and TA1538), Assay Type: Histidine reverse gene mutation, Ames assay, Assay Code: SAL+, Evaluation Type: Evaluation A (Pre-1980)”, the mutagenic call is “active; positive”.

For the molecule `O=c1cnn([C@@H]2O[C@H](CO)[C@@H](O)[C@H]2O)c(=O)[nH]1`, the mutagenic call runs as follows: (Species/Cell Type: Drosophila melanogaster, Assay Type: Sex-linked recessive lethal gene mutation, Assay Code: SRLT, Evaluation Type: Evaluation A (Pre-1980)) “no conclusion”; (Species/Cell Type: Rabbit, Sex: Male, Assay Type: Sperm morphology, Assay Code: SPR+, Evaluation Type: Evaluation A (Pre-1980)) “active; positive”.

Consider `C=CC1C(C)OC(=O)C1C(C)=O` (stereo not drawn), for which the mutagenic call under setting [5] was “active; positive”.

Take `O[C@@H]1C=Cc2c(ccc3cc4ccccc4cc23)[C@H]1O`: the mutagenic call runs as follows: (Species/Cell Type: Chinese hamster lung (V79) cells, Assay Type: Forward gene mutation at the HPRT or ouabain locus, Assay Code: V79+, Evaluation Type: Evaluation A (Pre-1980)) “active; positive”; under setting [2], “active; positive”; under setting [4], “active; positive”. Moreover, the call under setting [1] is “active; positive”.

As to `CN(CCO)c1nc(Nc2ccccc2)nc(Nc2ccc(/C=C/c3ccc(Nc4nc(Nc5ccccc5)nc(N(C)CCO)n4)cc3S(=O)(=O)O)c(S(=O)(=O)O)c2)n1`, the mutagenic call reads like this: under setting [6], “inactive; negative”; under setting [3], “no conclusion”.

On to `Nc1ccc(-c2nc(NCCO)c3ccccc3n2)s1`, for which the mutagenic call under setting [3] is given as “no conclusion”.

As for `OCc1ccc(-c2ccccc2)cc1`, the mutagenic call was “no conclusion” (Species/Cell Type: Chinese hamster ovary (CHO) cells, Assay Type: Forward gene mutation at the HPRT locus, Assay Code: CHOT, Evaluation Type: Evaluation B (Post-1980)) and “active; positive” (Species/Cell Type: Mammalian polychromatic erythrocytes, Assay Type: Micronucleus test, chromosome aberrations, Assay Code: MNT+U, Dose Response: Unconfirmed positive response, Evaluation Type: Evaluation B (Post-1980)).
